Experimental data: patent US20230075822A1, “USE OF CASTALAGIN OR ANALOGS THEREOF FOR ANTI-CANCER EFFICACY AND TO INCREASE THE RESPONSE TO IMMUNE CHECKPOINT INHIBITORS” (THE ROYAL INSTITUTION FOR THE ADVANCEMENT OF …, priority 2020, published 2023)

Assays:
[1] = test system: CD8^+ T cells; assay: Flow cytometry immune profiling of TILs, MCA-205 tumor model; type: in vivo, C57BL/6 mice; conditions: SPF mice, castalagin experiment
Procedure: FIGS. 7A-C are graphs showing the results of immune cell profiling by flow cytometry in the murine MCA-205 (FIGS. 7A-B) or E0771 (FIG. 7C) tumor model treated with anti-PD-1 and/or CC. The tumors and the spleens were harvested 9 days or 19 days after the first injection of anti-PD-1 mAb into mice bearing MCA-205 or E0771 tumors, respectively. Excised tumors were cut into small pieces and digested in RPMI medium containing Liberase 25 μg/mL (Roche) and DNase1 at 150 Ul/mL (Roche) for 30 minutes at 37° C. and then crushed and filtered twice using 100 and 70 μm cell strainers (Becton & Dickinson). Spleens were crushed in RPMI medium and subsequently filtered through a 100 μm cell strainer. Two million tumor cells or splenocytes were pre-incubated with purified anti-mouse CD16/CD32 (clone 93; eBioscience) for 30 minutes at 4° C., before membrane staining (CD45, CD3, CD4, CD8, PD1, PDL1, ICOS, CXCR3, CCR9, CD45RB, CD62L, CD44). For intracellular staining, the Foxp3 staining kit (eBioscience) was used. Dead cells were excluded using the Live/Dead Fixable aqua blue dead cell stain kit (Life Technologies). […] FIG. 7C is a graph showing the activation of intratumoral CD8^+ T cells (as assessed by MFI of ICOS^+CD8^+ T cells by flow cytometry) in TILs in the E0771 tumor model post-treatment with CC +/−αPD-1. […]

[2] = test system: MCA-205 sarcoma; assay: MCA-205 tumor model in germ-free conditions; type: in vivo, C57BL/6 mice; conditions: castalagin 0.85 mg/kg per mouse
Procedure: FIG. 9A is a graph showing the effects of castalagin administration at the standard concentration (0.85 mg/kg per mouse) in germ-free conditions on tumor size in the murine MCA-205 tumor model.
Murine studies. All animal studies were approved by the Institutional Animal Care Committee (CIPA) and carried out in compliance with the Canadian Council on Animal Care guidelines. Murine experiments were conducted using seven-week-old female C57BL/6 mice, obtained from Charles River, Canada. Germ-free female C57BL/6 mice were purchased from the International Microbiome Centre Germ-Free Facility (University of Calgary, Canada) and maintained at the CR-CHUM Germ-Free Facility.
Subcutaneous model of MCA-205 sarcoma and E0771 breast cancer. Syngeneic C57BL/6 mice were implanted with 0.8×10^6 MCA-205 or 0.5×10^6 E0771 subcutaneously. When tumors reached 20 to 35 mm^2 in size, mice were treated four times (or two times for flow cytometry analysis, see section below) intraperitoneally (i.p.) every three day with anti-PD-1 monoclonal antibody (mAb) (250 μg/mouse; clone RMP1-14, BioXcell) or isotype control (clone 2A3, BioXcell). […] In the control group mice received daily oral gavage with water (100 μL) Tumor area was routinely monitored every three days by means of a caliper. […]

O=C1OC[C@H]2OC(=O)c3cc(O)c(O)c(O)c3-c3c(O)c(O)c(O)c4c3C(=O)O[C@H]([C@H]3OC(=O)c5c-4c(O)c(O)c(O)c5[C@@H]3O)[C@@H]2OC(=O)c2cc(O)c(O)c(O)c2-c2c1cc(O)c(O)c2O [castalagin, Castalagin]
TCM CD8^+ T cells (CD45RB^−CD62L^+) in TILs [1]: upregulation of Tom CD8^+ T cells | tumor size [2]: abrogated castalagin antitumor effect
